Measurements from patent US6087375A, “Methods of treating or preventing thromboses” (priority 1999, dated 2000).

Assays:
[1] = target: human serum albumin (HSA) (Homo sapiens, UniProt P02768); assay: Mass spectrometric analysis of conjugation to HSA (HPLC/ESIMS); type: binding; settings: HSA 5 μM, 1 hour, room temperature
Method: (§1) All samples were analyzed using a high performance liquid chromatograph (HPLC) coupled in-line to an electrospray ionization (ESI) mass spectrometer (MS) which is termed HPLC/ESIMS. Some samples were also analyzed using a matrix-assisted laser desorption ionization (MALDI) time-of-flight (TOF) mass spectrometer which is termed (MALDI-TOFMS).
(§2) Samples for HPLC/ESIMS were either prepared as duplicate reaction samples or were part of the same reaction samples which were used in the ELISA assays described below. These samples were injected directly only the HPLC/ESIMS without any manipulation other than dilution with water, where the PBS, DMSO, and unreacted derivative molecules are separated from the protein-argatroban derivative molecule conjugate. Samples for MALDI-MS were first HPLC-purified and mixed 1:1 directly on the stainless steel analysis plate with a matrix of 10 mg/ml sinnapinic acid in 50% acetonitrile/50% water. The mixture was then dried with a gentle flow of air to allow for crystallization and inserted into the instrument for laser ionization.
(§3) The HPLC is a Hewlett Packard 1090 Series II liquid chromatogram with a diode array detector. The column used for separation is a Brownlee aquapore OD-300 reversed phase C18 column, 1 mm×10 cm, 300 Å pore size, 7 μm particle diameter. The mass spectrometer to which the HPLC is connected using fused Silica capillary tubing is a Sciex API-300 triple quadrupole mass spectrometer with an ionspray source to allow for atmospheric pressure ionization of a liquid flowing continuously into the instrument. The MALDI-TOFMS is a Perceptive Biosystems Voyager Elite DE instrument run in the linear mode.

[2] = target: rabbit serum albumin (RSA) (Oryctolagus cuniculus, UniProt P49065); assay: Mass spectrometric analysis of conjugation to RSA (HPLC/ESIMS, MALDI-TOFMS); type: binding; settings: HPLC/ESIMS, RSA 4.5 μM, 1 hour, room temperature
Method: as §1, §2, §3
The conjugate was prepared according to the following protocol. […] Sham samples consist of the RSA incubated for the same length of time at RT in 2% DMSO in PBS. Each of the samples was then concentrated to a final volume of 1.5 mL using Amicon Centricon 30 filtration/concentration devices. The concentrated samples were then desalted on Pierce's 5 ML Kwiksep excellulose plastic desalting columns. The excluded volumes containing RSA or argatroban-C6-RSA were then subjected to BCA microprotein estimation and lyophilization. In addition, these samples were analyzed by LC/MS, sandwich ELISA assays (described above) to measure thrombin binding and immunoblotting.

human serum albumin (HSA), sequence (P02768 25-609): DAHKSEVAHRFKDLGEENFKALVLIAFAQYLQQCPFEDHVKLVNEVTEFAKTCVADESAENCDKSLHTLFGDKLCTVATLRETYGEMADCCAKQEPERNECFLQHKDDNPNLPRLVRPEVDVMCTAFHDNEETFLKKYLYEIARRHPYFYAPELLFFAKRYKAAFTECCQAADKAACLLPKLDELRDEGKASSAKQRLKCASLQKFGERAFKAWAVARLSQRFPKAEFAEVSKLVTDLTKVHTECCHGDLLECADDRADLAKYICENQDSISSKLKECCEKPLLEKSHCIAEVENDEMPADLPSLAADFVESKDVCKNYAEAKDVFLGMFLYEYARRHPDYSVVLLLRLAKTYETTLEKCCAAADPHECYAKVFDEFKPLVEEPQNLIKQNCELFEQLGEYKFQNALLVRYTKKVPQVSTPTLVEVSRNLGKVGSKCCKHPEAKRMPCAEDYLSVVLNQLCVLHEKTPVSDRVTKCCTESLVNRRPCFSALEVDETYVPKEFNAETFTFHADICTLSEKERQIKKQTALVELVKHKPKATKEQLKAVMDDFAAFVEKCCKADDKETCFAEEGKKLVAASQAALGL
rabbit serum albumin (RSA), sequence (P49065 25-608): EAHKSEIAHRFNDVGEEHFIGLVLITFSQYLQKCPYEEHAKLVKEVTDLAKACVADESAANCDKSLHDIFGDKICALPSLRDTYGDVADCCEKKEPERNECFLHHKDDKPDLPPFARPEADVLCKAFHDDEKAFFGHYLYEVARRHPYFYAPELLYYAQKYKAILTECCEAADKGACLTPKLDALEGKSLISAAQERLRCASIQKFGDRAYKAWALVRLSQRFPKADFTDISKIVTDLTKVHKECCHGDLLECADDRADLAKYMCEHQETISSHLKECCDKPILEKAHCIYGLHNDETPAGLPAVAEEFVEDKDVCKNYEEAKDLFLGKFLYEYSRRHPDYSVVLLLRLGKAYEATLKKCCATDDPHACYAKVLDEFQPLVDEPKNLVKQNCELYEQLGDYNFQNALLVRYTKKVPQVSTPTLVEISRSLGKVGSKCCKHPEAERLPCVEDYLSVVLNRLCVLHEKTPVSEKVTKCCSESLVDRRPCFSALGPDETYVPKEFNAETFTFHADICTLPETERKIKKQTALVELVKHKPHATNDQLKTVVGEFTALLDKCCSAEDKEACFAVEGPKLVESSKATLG

SMILES: CC1CNc2c(cccc2S(=O)(=O)NC(CCCNC(=N)N)C(=O)N2CCC(C)CC2C(=O)NCCCCCCCCCCCC(=O)ON2C(=O)CCC2=O)C1 (stereo not shown) [compound YL-015-11]
- covalent addition of argatroban derivative molecules per HSA molecule ([1]; 0.5 μM ester): 0-4 argatroban derivative molecules per HSA molecule
- covalent addition of argatroban derivative molecules per HSA molecule ([1]; 100 μM ester): 1-5 argatroban derivative molecules per HSA molecule
- covalent addition of argatroban derivative molecules per RSA molecule ([2]; 0.5 μM ester): 0-3 argatroban derivative molecules per RSA molecule
- covalent addition of argatroban derivative molecules per RSA molecule ([2]; 100 μM ester): 1-5 argatroban derivative molecules per RSA molecule
